From patent publication US20220033407A1, “N-(pyridin-2-ylsulfonyl)cyclopropanecarboxamide Derivatives and their Use in the Treatment of Disease” (NOVARTIS AG, priority 2018, published 2022)

How the values were obtained:
delF508-CFTR-HRP = target: T1, delF508-CFTR-HRP (Homo sapiens, UniProt P13569, DEL508-508); experiment: Measurement of delF508-CFTR-HRP surface expression in CFBE41o- cells (HRP luminescence); format: cell-based; conditions: for Emax: CFBE41o-, read-out: DelF508-CFTR-HRP Amax %; for EC50: mean of at least two replicates;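 for DelF508-CFTR-HRP Amax %: percent efficacy relative to a reference CFTR corrector compound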
T1 construct: expressed in transfected cells
T1 sequence (P13569 with tags, fused parts or gaps DEL508-508): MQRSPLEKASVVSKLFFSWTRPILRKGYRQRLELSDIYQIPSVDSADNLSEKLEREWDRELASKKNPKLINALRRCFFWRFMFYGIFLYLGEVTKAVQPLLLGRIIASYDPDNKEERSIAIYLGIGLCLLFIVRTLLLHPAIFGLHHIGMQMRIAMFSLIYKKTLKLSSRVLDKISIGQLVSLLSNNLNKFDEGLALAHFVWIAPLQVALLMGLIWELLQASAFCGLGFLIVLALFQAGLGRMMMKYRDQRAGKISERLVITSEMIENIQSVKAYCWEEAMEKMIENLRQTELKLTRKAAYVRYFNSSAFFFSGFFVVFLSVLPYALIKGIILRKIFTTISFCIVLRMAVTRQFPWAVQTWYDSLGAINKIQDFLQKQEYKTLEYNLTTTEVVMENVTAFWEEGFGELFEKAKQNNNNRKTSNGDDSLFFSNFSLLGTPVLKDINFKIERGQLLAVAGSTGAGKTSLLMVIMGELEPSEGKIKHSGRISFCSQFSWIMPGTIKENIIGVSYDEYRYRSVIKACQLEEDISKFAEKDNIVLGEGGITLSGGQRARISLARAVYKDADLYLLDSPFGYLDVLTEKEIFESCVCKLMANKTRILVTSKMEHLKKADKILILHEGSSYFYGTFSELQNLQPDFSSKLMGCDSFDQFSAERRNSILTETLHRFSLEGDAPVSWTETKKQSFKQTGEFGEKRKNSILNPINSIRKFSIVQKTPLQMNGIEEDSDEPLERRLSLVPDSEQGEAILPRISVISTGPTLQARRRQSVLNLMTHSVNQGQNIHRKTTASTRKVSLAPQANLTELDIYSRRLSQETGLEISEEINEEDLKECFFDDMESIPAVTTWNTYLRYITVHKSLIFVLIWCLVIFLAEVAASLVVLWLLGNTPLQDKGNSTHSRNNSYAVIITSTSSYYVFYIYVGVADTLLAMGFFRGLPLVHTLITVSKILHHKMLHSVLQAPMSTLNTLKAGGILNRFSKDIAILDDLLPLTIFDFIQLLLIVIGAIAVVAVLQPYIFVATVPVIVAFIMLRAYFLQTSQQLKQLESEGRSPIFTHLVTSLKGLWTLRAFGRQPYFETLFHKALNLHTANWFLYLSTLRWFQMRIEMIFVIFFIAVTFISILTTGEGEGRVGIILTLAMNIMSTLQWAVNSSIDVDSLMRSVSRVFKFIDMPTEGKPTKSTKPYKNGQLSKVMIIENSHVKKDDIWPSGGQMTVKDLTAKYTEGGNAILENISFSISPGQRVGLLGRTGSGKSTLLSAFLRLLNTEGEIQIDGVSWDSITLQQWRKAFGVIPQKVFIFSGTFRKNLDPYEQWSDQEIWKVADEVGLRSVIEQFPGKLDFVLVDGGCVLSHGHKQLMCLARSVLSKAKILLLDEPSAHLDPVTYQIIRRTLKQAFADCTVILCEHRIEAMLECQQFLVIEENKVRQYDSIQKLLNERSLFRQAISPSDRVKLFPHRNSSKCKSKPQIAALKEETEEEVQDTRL
In short: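 EC50 derived by logistic regression of triplicate surface-HRP luminescence, plate-normalized to the lowest-concentration median. Doxycycline (500 ng/mL, 48 h) induced delF508-CFTR-HRP in CFBE41o- cells; compounds then applied 24 h at 37° C, 10 μM top, 3-fold over 10 points.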

delF508-CFTR = target: T2, delF508-CFTR (Homo sapiens, UniProt P13569, DEL508-508); experiment: delF508-CFTR functional activity in primary human bronchial epithelial cells (HBECs), Multi-Transepithelial Clamp Circuit (MTECC-24) assay, equivalent short circuit current; format: cell-based; conditions: primary CF HBECs; for MTECC24 CFHBEC-Amax %: relative to reference combination 2 μM 3-(6-(1-(2,2-difluorobenzo[d][1,3]dioxol-5-yl)cyclopropane-1-carboxamido)-3-methylpyridin-2-yl)benzoic acid (24 h) + 0.5 μM N-(2,4-di-tert-butyl-5-hydroxyphenyl)-4-oxo-1,4-dihydroquinoline-3-carboxamide; for EC50: test compound added 24 h before assay, potentiator (S)-3-amino-6-methoxy-N-(3,3,3-trifluoro-2-hydroxy-2-methylpropyl)-5-(trifluoromethyl)picolinamide present at assay, mean of at least two replicates, read-out: MTECC24 CFHBEC-EC50
T2 construct: functional activity of the CFTR channel (Chloride ion transport) in patient derived primary human bronchial epithelial cells; host or cells: patient-derived primary human bronchial epithelial cells (HBECs), delF508-CFTR
T2 sequence (P13569 with tags, fused parts or gaps DEL508-508): as above
In short: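 Compound acted as corrector on differentiated primary delF508-CFTR bronchial cultures, first 24 h basolaterally, then 45 min both sides before reading. Equivalent short circuit current was recorded during sequential forskolin and potentiator addition. EC50 came from 10-point, 1-in-3 dilution curves against the 0.1% DMSO baseline.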

Structure (SMILES) | Emax (delF508-CFTR-HRP) | EC50 (delF508-CFTR-HRP) | MTECC24 CFHBEC-Amax % (delF508-CFTR) | EC50 (delF508-CFTR)
Cc1ccc(C)c(OC2(C(=O)NS(=O)(=O)c3cccc(N4CCOC[C@@H]4C)n3)CC2)c1 [Example 4-2, (S)-1-(2,5-Dimethylphenoxy)-N-((6-(3-methylmorpholino)pyridin-2-yl)sulfonyl)cyclopropane-1-carboxamide] | 134% | 4670 nM | 34% | 568 nM
Cc1ccc(C2CCCC2)c(OC2(C(=O)NS(=O)(=O)c3cccc(NC[C@H](C)O)n3)CC2)c1 [Example 4-5, (S)-1-(2-Cyclopentyl-5-methylphenoxy)-N-((6-((2-hydroxypropyl)amino)pyridin-2-yl)sulfonyl)cyclopropane-1-carboxamide] | 590% | 2810 nM | 82% | 10 nM
Cc1ccc(C2CCCC2)c(OC2(C(=O)NS(=O)(=O)c3cccc(NC[C@@H](C)O)n3)CC2)c1 [Example 4-6, (R)-1-(2-Cyclopentyl-5-methylphenoxy)-N-((6-((2-hydroxypropyl)amino)pyridin-2-yl)sulfonyl)cyclopropane-1-carboxamide] | 537% | 3350 nM | 78% | 12 nM
Cc1ccc(CC(C)C)c(OC2(C(=O)NS(=O)(=O)c3cccc(N4CCC[C@@H](CO)C4)n3)CC2)c1 [Example 4-8, (R)-N-((6-(3-(hydroxymethyl)piperidin-1-yl)pyridin-2-yl)sulfonyl)-1-(2-isobutyl-5-methylphenoxy)cyclopropane-1-carboxamide] | 388% | 2200 nM | 80% | 11 nM
Cc1ccc(CC(C)C)c(OC2(C(=O)NS(=O)(=O)c3cccc(NC[C@H](C)O)n3)CC2)c1 [Example 4-9, (S)-N-((6-((2-Hydroxypropyl)amino)pyridin-2-yl)sulfonyl)-1-(2-isobutyl-5-methylphenoxy)cyclopropane-1-carboxamide] | 477% | 3460 nM | 70% | 23 nM
Cc1ccc(CC(C)C)c(OC2(C(=O)NS(=O)(=O)c3cccc(NC[C@@H](C)O)n3)CC2)c1 [Example 4-10, (R)-N-((6-((2-Hydroxypropyl)amino)pyridin-2-yl)sulfonyl)-1-(2-isobutyl-5-methylphenoxy)cyclopropane-1-carboxamide] | 374% | 3280 nM | 71% | 12 nM
CC(C)Cc1ccc(Cl)cc1OC1(C(=O)NS(=O)(=O)c2cccc(NC[C@H](C)O)n2)CC1 [Example 4-11, (S)-1-(5-Chloro-2-isobutylphenoxy)-N-((6-((2-hydroxypropyl)amino)pyridin-2-yl)sulfonyl)cyclopropane-1-carboxamide] | 115% | 3100 nM | 66% | 35 nM
O=C(NS(=O)(=O)c1cccc(N2CC(O)C2)n1)C1(Oc2cc(Cl)ccc2C2CCC3(CC2)CC3)CC1 [Example 4-12, 1-(5-Chloro-2-(spiro[2.5]octan-6-yl)phenoxy)-N-((6-(3-hydroxyazetidin-1-yl)pyridin-2-yl)sulfonyl)cyclopropane-1-carboxamide] | 418% | 1920 nM | 82% | 51 nM
C[C@@H]1CN(c2cccc(S(=O)(=O)NC(=O)C3(Oc4cc(Cl)ccc4C4CCC(C)(C)CC4)CC3)n2)CCO1 [Example 4-13, (R)-1-(5-Chloro-2-(4,4-dimethylcyclohexyl)phenoxy)-N-((6-(2-methylmorpholino)pyridin-2-yl)sulfonyl)cyclopropane-1-carboxamide] | 591% | 1410 nM | 83% | 50 nM
Cc1ccc(C2CC2)c(OC2(C(=O)NS(=O)(=O)c3cccc(NC[C@H](C)O)n3)CC2)c1 [Example 4-14, (S)-1-(2-Cyclopropyl-5-methylphenoxy)-N-((6-((2-hydroxypropyl)amino)pyridin-2-yl)sulfonyl)cyclopropane-1-carboxamide] | 119% | 3650 nM | 57% | 109 nM
C[C@H](O)CNc1cccc(S(=O)(=O)NC(=O)C2(Oc3cc(Cl)ccc3C3CC3)CC2)n1 [Example 4-15, (S)-1-(5-Chloro-2-cyclopropylphenoxy)-N-((6-((2-hydroxypropyl)amino)pyridin-2-yl)sulfonyl)cyclopropane-1-carboxamide] | 114% | 4160 nM | 35% | 69 nM
Cc1ccc(C2(C)CC2)c(OC2(C(=O)NS(=O)(=O)c3cccc(NC[C@H](C)O)n3)CC2)c1 [Example 4-16, (S)-N-((6-((2-Hydroxypropyl)amino)pyridin-2-yl)sulfonyl)-1-(5-methyl-2-(1-methylcyclopropyl)phenoxy)cyclopropane-1-carboxamide] | 113% | 3460 nM | 48% | 9 nM
Cc1ccc(C2(C(F)(F)F)CC2)c(OC2(C(=O)NS(=O)(=O)c3cccc(N4CC(C)(O)C4)n3)CC2)c1 [Example 4-17, N-((6-(3-Hydroxy-3-methylazetidin-1-yl)pyridin-2-yl)sulfonyl)-1-(5-methyl-2-(1-(trifluoromethyl)cyclopropy)phenoxy)cyclopropane-1-carboxamide] | 156% | 4030 nM | 55% | 76 nM
Cc1ccc(C2CCCOC2)c(OC2(C(=O)NS(=O)(=O)c3cccc(N4CCC[C@@H](CO)C4)n3)CC2)c1 (stereo partly drawn) [Example 4-20, N-((6-((R)-3-(hydroxymethyl)piperidin-1-yl)pyridin-2-yl)sulfonyl)-1-(5-methyl-2-(tetrahydro-2H-pyran-3-yl)phenoxy)cyclopropane-1-carboxamide] | 202% | 3230 nM | 54% | 297 nM
Cc1ccc(C2CC=CCC2)c(OC2(C(=O)NS(=O)(=O)c3cccc(N4CC(C)(O)C4)n3)CC2)c1 (stereo not drawn) [Example 4-22, N-((6-(3-hydroxy-3-methylazetidin-1-yl)pyridin-2-yl)sulfonyl)-1-((4-methyl-1′,2′,3′,6′-tetrahydro-[1,1′-biphenyl]-2-yl)oxy)cyclopropanecarboxamide] | 453% | 3670 nM | 62% | 12 nM
Cc1ccc(-c2cccc(C(F)(F)F)c2)c(OC2(C(=O)NS(=O)(=O)c3cccc(N4CC[C@H](O)C4)n3)CC2)c1 [Example 5-1, (S)-N-((6-(3-Hydroxypyrrolidin-1-yl)pyridin-2-yl)sulfonyl)-1-((4-methyl-3′-(trifluoromethyl)-[1,1′-biphenyl]-2-yl)oxy)cyclopropane-1-carboxamide] | 503% | 1950 nM | 88% | 16 nM
O=C(NS(=O)(=O)c1cccc(N2CC[C@H](O)C2)n1)C1(Oc2cc(Cl)ccc2-c2cccc(C(F)(F)F)c2)CC1 [Example 5-2, (S)-1-((4-Chloro-3′-(trifluoromethyl)-[1,1′-biphenyl]-2-yl)oxy)-N-((6-(3-hydroxypyrrolidin-1-yl)pyridin-2-yl)sulfonyl)cyclopropane-1-carboxamide] | 313% | 1580 nM | 62% | 99 nM
O=C(NS(=O)(=O)c1cccc(N2CC[C@H](O)C2)n1)C1(Oc2cc(C(F)(F)F)ccc2-c2cccc(C(F)(F)F)c2)CC1 [Example 5-5, (S)-1-((3′,4-Bis(trifluoromethyl)-[1,1′-biphenyl]-2-yl)oxy)-N-((6-(3-hydroxypyrrolidin-1-yl)pyridin-2-yl)sulfonyl)cyclopropane-1-carboxamide] | 242% | 2050 nM | 94% | 71 nM
Cc1ccc(-c2cccc(OC(F)(F)F)c2)c(OC2(C(=O)NS(=O)(=O)c3cccc(N4CC(C)(O)C4)n3)CC2)c1 [Example 5-8, N-((6-(3-Hydroxy-3-methylazetidin-1-yl)pyridin-2-yl)sulfonyl)-1-((4-methyl-3′-(trifluoromethoxy)-[1,1′-biphenyl]-2-yl)oxy)cyclopropane-1-carboxamide] | 371% | 2480 nM | 57% | 6 nM
Cc1ccc(-c2cccc(C(F)F)c2)c(OC2(C(=O)NS(=O)(=O)c3cccc(N4CC[C@H](O)C4)n3)CC2)c1 [Example 5-9, (S)-1-((3′-(Difluoromethyl)-4-methyl-[1,1′-biphenyl]-2-yl)oxy)-N-] | 298% | 3110 nM | 87% | 76 nM
Cc1ccc(-c2ccc(C(F)(F)F)cc2)c(OC2(C(=O)NS(=O)(=O)c3cccc(N4CC[C@H](O)C4)n3)CC2)c1 [Example 5-10, (S)—N-((6-(3-Hydroxypyrrolidin-1-yl)pyridin-2-yl)sulfonyl)-1-((4-methyl-4′-(trifluoromethyl)-[1,1′-biphenyl]-2-yl)oxy)cyclopropane-1-carboxamide] | 416% | 1210 nM | 114% | 26 nM
